In the supplement of paper PMC6045584 one finds surviving fraction data, which are given here for seven test systems.

± gives the standard deviation of the averaged measurements.

Compound in experiment [1]: Cc1nc(Nc2n[nH]c3c2CN(C(=O)N[C@H](CN(C)C)c2ccccc2)C3(C)C)c2sccc2n1
The experiment can be described thus: surviving fraction relative to DMSO-only wells; higher = less growth inhibition. The note with it: exposure time: 5 days. Put shortly: (§1)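 Viability was scored with CellTiter-Glo luminescence and normalised to the median of DMSO-only wells as surviving fraction. Beforehand, log-phase tumour cell lines were seeded at 250–500 cells per well in 384-well plates, allowed 24 hours, and exposed continuously for five days to inhibitors at 0.5, 1, 5, 10, 50, 100, 500 and 1000 nM. Only lines whose three screens gave replicate Pearson r >0.7 and median Z' >0.3 were kept.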

Compound in the next experiment: C#Cc1cccc(Nc2ncnc3cc(OCCOC)c(OCCOC)cc23)c1 [ERLOTINIB]
Described as above. To be noted: exposure time: 5 days. In short, it runs like this: as §1

Consider C33A CERVIX, for which the surviving fraction came to 0.67 ± 0.035 in experiment [1] (0.5 nM); 0.62 ± 0.016 in experiment [1] (1 nM); 0.298 ± 0.049 in experiment [1] (5 nM); 0.26 ± 0.024 in experiment [1] (10 nM); 0.221 ± 0.011 in experiment [1] (50 nM); 0.214 ± 0.024 in experiment [1] (100 nM). The surviving fraction in experiment [1] (500 nM) was 0.146 ± 0.0049; in experiment [1] (1000 nM), 0.0663 ± 0.009; with ERLOTINIB (5 nM), 1.06 ± 0.03; with ERLOTINIB (10 nM), 1.14 ± 0.019; with ERLOTINIB (50 nM) it was 1.06 ± 0.077; with ERLOTINIB (100 nM), 1.08 ± 0.029. Besides, the surviving fraction with ERLOTINIB (500 nM) was 0.819 ± 0.052; with ERLOTINIB (1000 nM), 0.655 ± 0.031.

Regarding CAL72 BONE, the surviving fraction amounted to 1.04 ± 0.066 in experiment [1] (0.5 nM); 0.993 ± 0.032 in experiment [1] (1 nM); 0.691 ± 0.061 in experiment [1] (5 nM); 0.556 ± 0.058 in experiment [1] (10 nM); 0.435 ± 0.025 in experiment [1] (50 nM); 0.399 ± 0.011 in experiment [1] (100 nM). The surviving fraction in experiment [1] (500 nM) was determined as 0.194 ± 0.023; in experiment [1] (1000 nM) it was 0.0947 ± 0.0081; with ERLOTINIB (5 nM), 1.05 ± 0.1; with ERLOTINIB (100 nM), 1.1 ± 0.083; with ERLOTINIB (500 nM), 1.06 ± 0.084; with ERLOTINIB (1000 nM) it was 1.07 ± 0.058.

Regarding G292 BONE, the surviving fraction in experiment [1] (0.5 nM) worked out at 0.782 ± 0.028; in experiment [1] (1 nM), 0.642 ± 0.029; in experiment [1] (5 nM), 0.42 ± 0.0074; in experiment [1] (10 nM), 0.376 ± 0.004; in experiment [1] (50 nM), 0.324 ± 0.014; in experiment [1] (100 nM), 0.287 ± 0.012. The surviving fraction in experiment [1] (500 nM) is 0.166 ± 0.0052; in experiment [1] (1000 nM), 0.0753 ± 0.0032; with ERLOTINIB (5 nM) it was 1.03 ± 0.051; in the experiment with ERLOTINIB (10 nM), 1.06 ± 0.018; with ERLOTINIB (50 nM) it was 1.05 ± 0.038; with ERLOTINIB (100 nM), 1.07 ± 0.033. The surviving fraction with ERLOTINIB (500 nM) was determined as 0.979 ± 0.019; with ERLOTINIB (1000 nM), 1.07 ± 0.092.

HCC1395 BREAST: the surviving fraction in experiment [1] (0.5 nM) came to 0.927 ± 0.18; in experiment [1] (1 nM) it was 0.984 ± 0.06; in experiment [1] (5 nM) it was 1.06 ± 0.013; in experiment [1] (10 nM), 1.11 ± 0.13; in experiment [1] (50 nM) it was 0.964 ± 0.14; in experiment [1] (100 nM) it was 1.16 ± 0.26. Further, the surviving fraction in experiment [1] (500 nM) stood at 0.964 ± 0.15; in experiment [1] (1000 nM) it was 0.961 ± 0.16; with ERLOTINIB (1 nM), 0.992 ± 0.02; with ERLOTINIB (5 nM), 1.33 ± 0.036; with ERLOTINIB (10 nM), 1.18 ± 0.14; in the experiment with ERLOTINIB (100 nM) it was 1.28 ± 0.027. Further, the surviving fraction with ERLOTINIB (500 nM) turned out to be 1.14 ± 0.042; with ERLOTINIB (1000 nM) it was 1.19 ± 0.051.

On to HUO3N1 BONE, for which the surviving fraction in experiment [1] (0.5 nM) was 0.971 ± 0.018; in experiment [1] (1 nM), 0.942 ± 0.034; in experiment [1] (5 nM), 0.853 ± 0.011; in experiment [1] (10 nM), 0.781 ± 0.024; in experiment [1] (50 nM), 0.683 ± 0.015; in experiment [1] (100 nM), 0.625 ± 0.038. Besides, the surviving fraction in experiment [1] (500 nM) turned out to be 0.462 ± 0.029; in experiment [1] (1000 nM), 0.407 ± 0.0059; with ERLOTINIB (10 nM), 1.117 ± 0.0084; with ERLOTINIB (50 nM) it was 1.13 ± 0.025; with ERLOTINIB (100 nM) it was 1.1 ± 0.018; with ERLOTINIB (500 nM) it was 1.02 ± 0.025. Moreover, the surviving fraction with ERLOTINIB (1000 nM) worked out at 1.02 ± 0.038.

In the case of LNCAP PROSTATE, the surviving fraction came out at 0.773 ± 0.021 in experiment [1] (0.5 nM); 0.632 ± 0.054 in experiment [1] (1 nM); 0.215 ± 0.0067 in experiment [1] (5 nM); 0.196 ± 0.019 in experiment [1] (10 nM); 0.098 ± 0.017 in experiment [1] (50 nM); 0.097 ± 0.012 in experiment [1] (100 nM). The surviving fraction in experiment [1] (500 nM) was determined as 0.0357 ± 0.0032; in experiment [1] (1000 nM), 0.0227 ± 0.0029; with ERLOTINIB (5 nM), 0.956 ± 0.032; with ERLOTINIB (10 nM), 0.892 ± 0.053; with ERLOTINIB (50 nM), 0.947 ± 0.1; in the experiment with ERLOTINIB (100 nM) it was 1.02 ± 0.054. The surviving fraction in the experiment with ERLOTINIB (1000 nM) stood at 0.967 ± 0.028.

Turning to SCC003 HEADNECK, the surviving fraction in experiment [1] (0.5 nM) is 0.993 ± 0.094; in experiment [1] (1 nM), 1.05 ± 0.094; in experiment [1] (5 nM), 0.61 ± 0.043; in experiment [1] (10 nM), 0.418 ± 0.022; in experiment [1] (50 nM), 0.278 ± 0.029; in experiment [1] (100 nM), 0.275 ± 0.028. Further, the surviving fraction was 0.227 ± 0.021 in experiment [1] (500 nM); 0.183 ± 0.012 in experiment [1] (1000 nM); 1.13 ± 0.045 in the experiment with ERLOTINIB (5 nM); 1.06 ± 0.11 in the experiment with ERLOTINIB (10 nM); 0.997 ± 0.091 with ERLOTINIB (50 nM); 1.04 ± 0.051 with ERLOTINIB (100 nM). Besides, the surviving fraction with ERLOTINIB (500 nM) was 0.702 ± 0.024; with ERLOTINIB (1000 nM), 0.552 ± 0.038.
